Test results published in patent US20260347309A1 (priority 2022, published 2026).

Columns and labels:
[1] = cited from earlier work
Stathmin = test: RTqPCR gene expression of Stathmin; format: cell-based
Description: (§1) Total RNA is extracted using TRIzol Reagent (Invitrogen) and reverse transcribed with qScript cDNA Synthesis Kit (Quanta BioSciences, Beverly, MA) according to the manufacturer's instructions. Quantitative PCR analysis is conducted by using KAPA SYBR […] FAST (KAPA Biosystems, Wilmington, MA) on the 7900HT Fast Real-Time PCR System (Applied Biosystems, Foster City, CA).

MHC = test: surface expression of MHC (flow cytometry), multiple cell lines
MHC I = conditions: E5-positive AT-84-E7
[2] = target: T1, NR1/NR2B ionotropic receptor (Homo sapiens, UniProt Q05586+Q13224); test: ScreenPatch IonWorks Barracuda electrophysiology assay on NR1/NR2B; format: cell-based; conditions: for relative inhibition of NR2B: comparison of enantiomers and racemate, words
T1 construct: expressed in transfected cells
T1 sequence (Q13224 27-1484, other chains not shown): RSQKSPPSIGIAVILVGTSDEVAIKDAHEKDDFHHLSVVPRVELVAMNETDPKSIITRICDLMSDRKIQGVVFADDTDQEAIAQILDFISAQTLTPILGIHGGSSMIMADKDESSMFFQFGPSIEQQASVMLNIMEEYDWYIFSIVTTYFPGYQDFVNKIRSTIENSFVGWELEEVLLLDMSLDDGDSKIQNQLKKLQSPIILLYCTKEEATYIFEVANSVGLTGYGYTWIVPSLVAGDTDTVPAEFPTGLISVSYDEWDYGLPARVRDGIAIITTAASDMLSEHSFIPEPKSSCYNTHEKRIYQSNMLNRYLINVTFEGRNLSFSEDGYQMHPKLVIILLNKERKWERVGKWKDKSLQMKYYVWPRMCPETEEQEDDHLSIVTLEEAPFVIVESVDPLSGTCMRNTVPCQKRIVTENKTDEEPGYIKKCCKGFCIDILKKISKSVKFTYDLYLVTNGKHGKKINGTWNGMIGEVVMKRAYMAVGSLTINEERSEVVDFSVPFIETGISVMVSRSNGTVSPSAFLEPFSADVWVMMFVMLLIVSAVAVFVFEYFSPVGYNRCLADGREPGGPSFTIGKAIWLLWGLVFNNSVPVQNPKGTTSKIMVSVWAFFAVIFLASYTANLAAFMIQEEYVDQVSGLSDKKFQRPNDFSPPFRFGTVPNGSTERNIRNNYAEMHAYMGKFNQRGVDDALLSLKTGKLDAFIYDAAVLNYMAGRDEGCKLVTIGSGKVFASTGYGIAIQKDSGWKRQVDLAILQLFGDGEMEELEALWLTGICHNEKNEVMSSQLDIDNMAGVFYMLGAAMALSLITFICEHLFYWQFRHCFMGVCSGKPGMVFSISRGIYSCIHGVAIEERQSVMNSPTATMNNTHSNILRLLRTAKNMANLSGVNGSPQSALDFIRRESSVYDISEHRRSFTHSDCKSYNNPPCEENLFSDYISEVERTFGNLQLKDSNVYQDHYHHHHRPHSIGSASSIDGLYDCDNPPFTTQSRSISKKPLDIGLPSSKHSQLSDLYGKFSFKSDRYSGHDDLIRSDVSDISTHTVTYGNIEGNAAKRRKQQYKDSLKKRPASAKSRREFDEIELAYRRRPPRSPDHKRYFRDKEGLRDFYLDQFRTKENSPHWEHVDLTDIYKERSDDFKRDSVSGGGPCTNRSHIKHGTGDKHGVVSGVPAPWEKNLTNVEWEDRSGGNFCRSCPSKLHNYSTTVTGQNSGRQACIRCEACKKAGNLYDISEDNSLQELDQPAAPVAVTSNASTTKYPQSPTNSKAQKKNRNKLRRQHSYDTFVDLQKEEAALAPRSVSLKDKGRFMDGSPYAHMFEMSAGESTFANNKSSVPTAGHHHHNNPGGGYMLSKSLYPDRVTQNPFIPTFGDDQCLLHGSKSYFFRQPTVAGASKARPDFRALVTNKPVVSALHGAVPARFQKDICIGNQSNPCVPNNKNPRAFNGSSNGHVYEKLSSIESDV
Description: (§2) Test articles were evaluated for functional effects on ion channels.
(§3) The final DMSO concentration was 0.6%.
(§4) Adjusted to pH 7.2 with CsOH.

B16-OVA = test: BrdU incorporation / cell proliferation assay in B16-OVA; format: cell-based; conditions: for G0/G1 cell cycle arrest / S phase: BrdU, alone
Description: (§5) [LEFT OUT]. Louis, MO) (27).
(§6) Cell cycle progression was analyzed on the basis of BrdU incorporation following […] cell staining with BrdU-APC and 7-AAD using BD Pharmingen BrdU Flow Kit. (BD, Franklin Lakes, NJ) according to the manufacture's protocol. Cells are analyzed using flow cytometry. Cell proliferation is assessed by using MTT [3-(4,5-dimethylthiazol-2-yl)-2,5-diphenyltetrazolium bromide]. First, cells are seeded in 96-well plate and cultured for 2-3 days. Next, culture media is replaced with fresh media containing 0.5 mg/ml of MTT (Sigma) and the plates are incubated for 4 hours at 37 °C. Then, purple formazan crystals are dissolved in lysis buffer (4 mM HCl and 0.1% NP-40 in isopropanol) and the absorbance is recorded on a TECAN infiniteM200 microplate reader (Tecan, Männedorf, Switzerland) at a wavelength of 570 nm with absorbance at 650 nm as reference.

tumor = test: mouse cancer models, general anti-tumor activity; format: in vivo; conditions: alone
MHC class I = MHC class I surface expression on RAW264.7
[3] = in vivo CNS adverse effects / toxicity (Examples 4 and 5); set-up: species or system mouse
M2 transmembrane channel = conditions: cited from earlier work
B16-OVA tumor = test: mouse tumor model B16-OVA, IP treatment; conditions: in combination with anti-PDL1 immunotherapy; B16-OVA tumors
[4] = tested on: B16-OVA cells / B3Z cells; test: B3Z activation assay, recognition of OVA model tumor antigen on B16-OVA cells; format: cell-based; conditions: B16-OVA cells treated (100 μM, 24 hours) then B3Z co-culture 24 h; read-out: increase in recognition of model tumor antigen by B3Z cells
Description: B16-OVA cells are seeded into a 96-well plate and treated with 100 μM […], […] or racemic rimantadine for 24 hours, prior to addition of B3Z cells. After 24 hours of co-culture, medium is removed and 100 μl of lysis buffer [0.155 mM chlorophenol red β-D-galactopyranoside (CPRG) (Roche), 0.125% Nonidet P-40 Alternative (EMDCalbiochem), and 9 mM MgCl2 (Sigma) in PBS] are added. After incubation for 4 hours at 37 °C, the absorbance at 570 nm is determined on a TECAN infinite M200 microplate reader.

[5] = tested on: glutamate, GABA, dopamine receptors; test: in vivo SPECT receptor binding selectivity (Examples 4 and 5); set-up: species or system mouse
Tau = test: RTqPCR gene expression of Tau; format: cell-based
Description: as §1

AT-84-E7 = test: BrdU incorporation / cell proliferation assay in AT-84-E7; format: cell-based; conditions: for G0/G1 cell cycle arrest / S phase: BrdU, alone
Description: as §5, §6

MHC class II = MHC class II surface expression on RAW264.7
[6] = tested on: murine and human cell lines engineered to express HPV16 E5; test: cell cycle arrest in cell lines engineered to express HPV16 E5; format: cell-based; conditions: cells expressing HPV16 E5
Description: as §6

CAL-27 cells = test: CAL-27 in vitro MTT proliferation assay; format: cell-based, human; conditions: 0, 100, 250 or 500 μM, 24 or 48 hours
Description: On day 1, CAL-27 cells were seeded in a 96-well plate (2-4×10^3 cells/well, medium 100 μl/well) and left overnight to allow the cells to attach to the plate. On day 2, varying concentrations of rimantadine (0 μM, 100 μM, 250 μM, or 500 μM) were added to the cells and allowed to incubate for 24 hours or 48 hours. On either day 3 or 4, the culture media was aspirated, and 100 μl/well of MTT solution (comprising an MTT concentration of 0.5 mg/ml; formed by dilution of thiazolyl blue tetrazolium bromide solution (SIGMA, Cat #M2128) with stock solution (5 mg/ml in PBS (−20 °C)) was added to the culture media. The cells were incubated in a CO2 incubator at 37 °C for 3 hours, and the MTT solution was aspirated. 100 μl/well of DMSO was then added and the cells were incubated for about 5 minutes. A OD570 nm (Ref 650 nm) was then read. Results of the experiment are shown in FIG. 2.

[7] = target: T2, NR1/NR2A ionotropic receptor (Homo sapiens, UniProt Q05586+Q12879); test: ScreenPatch IonWorks Barracuda electrophysiology assay on NR1/NR2A; format: cell-based
T2 construct: expressed in transfected cells
T2 sequence (Q12879 23-1464, other chains not shown): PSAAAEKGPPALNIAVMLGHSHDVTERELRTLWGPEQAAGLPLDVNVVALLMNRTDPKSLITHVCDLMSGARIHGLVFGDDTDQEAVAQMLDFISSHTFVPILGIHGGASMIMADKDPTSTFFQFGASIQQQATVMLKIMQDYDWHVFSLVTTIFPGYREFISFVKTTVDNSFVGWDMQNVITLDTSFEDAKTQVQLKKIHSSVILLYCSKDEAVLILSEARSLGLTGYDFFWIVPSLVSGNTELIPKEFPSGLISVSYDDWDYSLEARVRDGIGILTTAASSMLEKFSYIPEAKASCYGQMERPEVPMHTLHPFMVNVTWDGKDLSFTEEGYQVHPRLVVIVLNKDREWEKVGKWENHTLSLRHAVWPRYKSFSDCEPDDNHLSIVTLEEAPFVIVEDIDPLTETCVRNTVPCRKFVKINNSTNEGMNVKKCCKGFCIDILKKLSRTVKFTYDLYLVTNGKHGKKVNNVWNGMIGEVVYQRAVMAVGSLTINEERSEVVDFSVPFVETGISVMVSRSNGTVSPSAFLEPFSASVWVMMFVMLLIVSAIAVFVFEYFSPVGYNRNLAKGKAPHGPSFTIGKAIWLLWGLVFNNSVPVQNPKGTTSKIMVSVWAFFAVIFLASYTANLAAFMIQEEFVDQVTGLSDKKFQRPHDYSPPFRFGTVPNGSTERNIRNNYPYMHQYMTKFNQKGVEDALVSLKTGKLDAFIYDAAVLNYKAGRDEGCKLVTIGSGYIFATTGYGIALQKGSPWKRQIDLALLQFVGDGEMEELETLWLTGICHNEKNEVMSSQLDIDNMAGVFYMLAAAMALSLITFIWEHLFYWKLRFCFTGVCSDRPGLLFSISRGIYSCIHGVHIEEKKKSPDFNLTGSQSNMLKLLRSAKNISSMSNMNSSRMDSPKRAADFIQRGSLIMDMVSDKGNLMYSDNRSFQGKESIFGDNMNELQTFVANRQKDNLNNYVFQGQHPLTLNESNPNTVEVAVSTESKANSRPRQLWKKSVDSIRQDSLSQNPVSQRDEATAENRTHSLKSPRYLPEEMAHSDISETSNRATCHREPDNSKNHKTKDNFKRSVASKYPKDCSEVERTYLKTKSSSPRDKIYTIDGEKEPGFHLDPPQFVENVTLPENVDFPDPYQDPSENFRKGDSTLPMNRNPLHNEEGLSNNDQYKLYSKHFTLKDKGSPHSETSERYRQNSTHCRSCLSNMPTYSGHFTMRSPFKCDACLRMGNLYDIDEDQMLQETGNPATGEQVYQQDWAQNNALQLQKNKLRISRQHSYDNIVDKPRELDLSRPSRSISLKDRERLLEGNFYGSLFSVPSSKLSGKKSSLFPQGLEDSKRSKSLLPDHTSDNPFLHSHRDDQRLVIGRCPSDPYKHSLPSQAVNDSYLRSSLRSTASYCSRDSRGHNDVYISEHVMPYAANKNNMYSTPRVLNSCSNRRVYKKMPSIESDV
Description: as §2, §3, §4

D2/3 dopamine receptor = conditions: radioligand; cited from earlier work
SCC-47 = test: BrdU incorporation and proliferation assays in SCC-47; format: cell-based, human; conditions: alone
Description: as §5, §6

CAL-33 = test: BrdU incorporation and proliferation assays in CAL-33; format: cell-based, human; conditions: alone
Description: as §5, §6

CAL-27 = test: BrdU incorporation and proliferation assays in CAL-27; format: cell-based, human; conditions: alone
Description: as §5, §6

[8] = agonist format, first application, data not shown

Row | SMILES | Stathmin gene expression (Stathmin) | surface expression of MHC (MHC) | cell surface expression of MHC I (MHC I) | relative inhibition of NR2B [2] | cell proliferation (B16-OVA) | G0/G1 cell cycle arrest (B16-OVA) | S phase (B16-OVA) | anti-tumor activity (tumor) | MHC class I surface expression (MHC class I) | survival (B16-OVA tumor) | fold induction at 100 µM [4] | Tau gene expression (Tau) | cell proliferation (AT-84-E7) | G0/G1 cell cycle arrest (AT-84-E7) | S phase (AT-84-E7) | MHC class II surface expression (MHC class II) | cell cycle arrest [6] | other results
1 | CC(N)C12CC3CC(CC(C3)C1)C2 (racemic) [racemic rimantadine] | – | – | – | – | – | – | – | – | – | – | – | – | – | – | – | – | – | side effects ([1]; currently prescribed doses): central nervous system (CNS) side effects, sleep side effects, gastrointestinal side effects, and atropinic side effects; most commonly cited toxicities for discontinuation of treatment ([1]; in vivo): Anxiety and insomnia
2 | C[C@@H](N)C12CC3CC(CC(C3)C1)C2 [2-R rimantadine] | significant decreases | Significant increases in surface expression of MHC | restored | greater ability to inhibit NR2B as compared to racemic rimantadine | Suppression of cell proliferation | significant increases in G0/G1 cell cycle arrest | significant decreases in S phase | significantly decreased tumor growth | significant increases | significant improvement in survival | 3 | Decreases in microtubule associated molecule Tau | Suppression of cell proliferation | significant increases in G0/G1 cell cycle arrest | significant decreases in S phase | significant increases | induce cell cycle arrest | incidence of central nervous system adverse effects ([3]; Example 4): higher incidence of central nervous system adverse effects; binding affinity for M2 channel pore (M2 transmembrane channel; one study, R- vs S-enantiomer): greater affinity than the S-enantiomer; binding selectivity or agonistic behavior to glutamate, GABA, dopamine receptors ([5]; Example 4, 10-20 mg/kg IP daily 7 days): significantly higher binding selectivity or agonistic behavior
3 | C[C@H](N)C12CC3CC(CC(C3)C1)C2 [2-S rimantadine] | significant decreases | Significant increases in surface expression of MHC | restored | to a lesser degree as compared to 2-R rimantadine and racemic rimantadine | Suppression of cell proliferation | significant increases in G0/G1 cell cycle arrest | significant decreases in S phase | significantly decreased tumor growth | significant increases | significant improvement in survival | 3 | Decreases in microtubule associated molecule Tau | Suppression of cell proliferation | significant increases in G0/G1 cell cycle arrest | significant decreases in S phase | significant increases | induce cell cycle arrest | toxicity compared to 2-R rimantadine ([3]; Example 4, taken together with Example 2): significantly less toxic; incidence of central nervous system adverse effects ([3]; Example 5): higher incidence of central nervous system adverse effects; toxicity compared to 2-R rimantadine ([3]; Example 5, taken together with Example 2): significantly less toxic; binding selectivity or agonistic behavior to glutamate, GABA, dopamine receptors ([5]; Example 5, 10-20 mg/kg IP daily 7 days): significantly higher binding selectivity or agonistic behavior; cancer cell proliferation compared to R-rimantadine or racemic rimantadine (CAL-27 cells): enhanced or equivalent cancer cell proliferation as compared to R-rimantadine or racemic rimantadine
4 | NC12CC3CC(CC(C3)C1)C2 [Amantadine] | – | – | – | – | – | – | – | – | – | – | – | – | – | – | – | – | – | agonist effect: activation of NMDA receptors [2, 8]: Neither test articles nor amantadine had produced significant activation of NMDA receptors; agonist effect: activation of NMDA receptors [7, 8]: Neither test articles nor amantadine had produced significant activation of NMDA receptors; shift in potency for steady state vs peak currents ([7]; suggests open channel block mechanism of inhibition): Leftward shift in amantadine potency for steady state currents measurements
5 | CCN1CCC[C@H]1CNC(=O)c1c(OC)ccc(I)c1O [IBZM] | – | – | – | – | – | – | – | – | – | – | – | – | – | – | – | – | – | affinity for the D2/3 dopamine receptor (D2/3 dopamine receptor): high affinity
6 | CC(N)C12CC3CC(CC(C3)C1)C2 (stereo not shown) [rimantadine] | – | – | – | – | – | – | – | – | – | – | – | – | – | – | – | – | – | cell cycle arrest (SCC-47): Significant cell cycle arrest; proliferation (SCC-47): decreased proliferation; cell cycle arrest (CAL-33): Significant cell cycle arrest; proliferation (CAL-33): decreased proliferation; inhibition of influenza activity (M2 transmembrane channel; by binding M2 transmembrane channel and blocking proton transport): inhibits influenza activity; cell cycle arrest (CAL-27): Significant cell cycle arrest; proliferation (CAL-27): decreased proliferation
